Earlier results in US9884123B2, “Ligand-targeted molecules and methods thereof” (INVICTUS ONCOLOGY PVT. LTD., priority 2012, dated 2018).
Like-named read-outs stand apart in the source and are kept apart here.

Columns and labels:
[1] = test system not given
[2] = system: MDR cells
[3] = Table 1, order of magnitude in words

Molecule	IC50 [1, 3]	IC50 ([1]; Table 1, numeric value, read-out: IC50) [nM]	Remarks: active against MDR cells too [2]
CCCCCCC[C@H](O)CC[C@H](O)[C@H]1CC[C@H]([C@H]2CC[C@H]([C@H](O)CCCCCCCCCC[C@@H](O)CC3=C[C@H](C)OC3=O)O2)O1 [27-hydroxybullatacin]	Low pM		
Cc1c[nH]c2c1[C@@]13C[C@@H]1CN(C(=O)c1cc4cc(NC(=O)c5cc6ccccc6o5)ccc4[nH]1)C3=CC2=O [Adozelesin (DC1), Adozelesin]		0.02	
COc1c(O)c2c(c3cc(C(=O)N4CCc5c4c(O)c(OC)c4[nH]c(C(=O)N6CC7CC78C6=CC(=O)c6[nH]cc(C)c68)cc54)[nH]c13)CCN2C(N)=O (stereo not shown) [CC-1065]	nM to		
COc1cccc2c1C(=O)c1c(O)c3c(c(O)c1C2=O)C[C@@](O)(C(=O)CO)C[C@@H]3O[C@H]1C[C@H](N)[C@H](O)[C@H](C)O1 [Doxorubucin]	High nM		
C=C1C[C@H](C)C[C@@H]2CC=C[C@@H](C/C=C\C(=O)O[C@H]([C@@H](O)/C=C/[C@@H]3CC(C)=CCO3)C[C@@H]3O[C@H]3[C@@H](O)C1)O2 [Laulimalide]	Low nM		
CC(=O)O[C@@H](C)/C=C\C(=O)N[C@@H]1C[C@H](C)[C@H](C/C=C(C)/C=C/[C@H]2OC(C)(C)C[C@@]3(CO3)[C@@H]2O)O[C@@H]1C [Meamycin]	picomolar		Active
CC[C@@H](/C=C(/C)[C@H]1C[C@H](OC)C[C@@H](O)C(C)(C)[C@]2(O)O[C@H](C[C@H](OC)[C@@H](O)C(=O)O1)C[C@H](OC)[C@@H]2O)CO [Peloruside A]	Low nM		
COc1cc([C@@H]2c3cc4c(cc3[C@@H](O[C@@H]3O[C@@H]5CO[C@@H](c6cccs6)O[C@H]5[C@H](O)[C@H]3O)[C@H]3COC(=O)[C@H]23)OCO4)cc(OC)c1O [Teniposide]	Low nM		
Auristatins E and F	nM to		
Calicheamicins	Picomolar		
Epothilones A and B			Active
Maytansinoid [Maytansinoid (DM1 and DM4)]	nM to		
